# Test results from patent US20240116985A1, “STAPLED PEPTIDES AND METHODS THEREOF” (priority 2020, published 2024).
# Target: T1, full-length beta-Catenin (Uniprot ID P35222) (Homo sapiens, UniProt P35222)
# T1 construct: 10 nM full-length beta-Catenin (Uniprot ID P35222)
# T1 sequence (P35222 1-781): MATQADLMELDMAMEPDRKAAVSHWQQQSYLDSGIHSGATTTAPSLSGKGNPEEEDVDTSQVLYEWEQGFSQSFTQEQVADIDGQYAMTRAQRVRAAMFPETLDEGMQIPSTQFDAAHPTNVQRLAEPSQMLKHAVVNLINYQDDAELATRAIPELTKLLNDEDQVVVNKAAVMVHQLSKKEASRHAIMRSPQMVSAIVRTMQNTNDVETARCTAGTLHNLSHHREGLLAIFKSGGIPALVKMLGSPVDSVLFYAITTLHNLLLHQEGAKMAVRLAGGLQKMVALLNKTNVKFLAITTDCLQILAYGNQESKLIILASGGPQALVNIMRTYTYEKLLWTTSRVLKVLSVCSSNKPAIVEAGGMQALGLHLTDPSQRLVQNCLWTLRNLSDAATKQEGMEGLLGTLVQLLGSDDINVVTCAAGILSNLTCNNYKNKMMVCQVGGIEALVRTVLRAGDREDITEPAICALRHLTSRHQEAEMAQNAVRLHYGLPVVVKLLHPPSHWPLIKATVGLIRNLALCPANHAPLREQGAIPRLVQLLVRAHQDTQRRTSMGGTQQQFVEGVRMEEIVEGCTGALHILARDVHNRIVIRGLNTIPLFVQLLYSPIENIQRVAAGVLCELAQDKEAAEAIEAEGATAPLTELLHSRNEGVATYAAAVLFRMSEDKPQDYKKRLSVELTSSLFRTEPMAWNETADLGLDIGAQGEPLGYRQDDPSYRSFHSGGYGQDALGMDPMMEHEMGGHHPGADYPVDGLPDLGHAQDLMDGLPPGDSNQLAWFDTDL
# Test: Fluorescence polarization IC50 (beta-catenin / 5FAM-TCF4 10-53 competition)
# Format: binding
# Details: fluorescence polarization; read-out: beta-Catenin FP IC50
row,IC50,SMILES
1,2020 nM,"CC(=O)N1CCC[C@]12CC=CCCCC1(CCCC=CCCCOC(=O)N3CC[C@@](C(=O)N[C@@H](Cc4ccccc4)C(=O)N[C@@H](Cc4csc5ccccc45)C(=O)N[C@@H](CCC(N)=O)C(N)=O)(C3)NC(=O)[C@H](CO)NC(=O)[C@H](Cc3ccccc3)NC(=O)[C@H](C)NC(=O)[C@H](CCCCNC(C)C)NC(=O)[C@H]([C@@H](C)O)NC(=O)[C@H](CC(=O)O)NC1=O)NC(=O)[C@H](CC(C)(C)C)NC(=O)[C@H](CC(N)=O)NC2=O (stereo partly drawn) [I-1601, Ac-PL3-Asn-Npg-B5-Asp-Thr-iPrLys-Ala-Phe-Ser-PyrS2-Phe-BztA-Gln-NH2]"
2,935 nM,"CC(=O)N1CCC[C@]12CC=CCCCC1(CCCC=CCCCOC(=O)N3CC[C@@](C(=O)N[C@@H](Cc4ccsc4)C(=O)N[C@@H](Cc4csc5ccccc45)C(=O)N[C@@H](CCC(N)=O)C(N)=O)(C3)NC(=O)[C@H](CC(C)C)NC(=O)[C@H](Cc3ccccc3)NC(=O)[C@H](C)NC(=O)[C@H](C)NC(=O)[C@H](Cc3c(F)c(F)c(F)c(F)c3F)NC(=O)[C@H](CC(=O)O)NC1=O)NC(=O)[C@H](CC(C)(C)C)NC(=O)[C@H](CC(=O)O)NC2=O (stereo partly drawn) [I-1792, Ac-PL3-Asp-Npg-B5-Asp-Pff-Ala-Ala-Phe-Leu-PyrS2-3Thi-BztA-Gln-NH2]"
3,2020 nM,"CC(=O)N1CCC[C@]12CC=CCCCC1(CCCC=CCCCOC(=O)N3CC[C@@](C(=O)N[C@@H](Cc4ccsc4)C(=O)N[C@@H](Cc4csc5ccccc45)C(=O)N[C@@H](Cc4ccccc4)C(N)=O)(C3)NC(=O)[C@H]([C@@H](C)O)NC(=O)[C@H](Cc3ccccc3)NC(=O)[C@H](C)NC(=O)[C@H](C)NC(=O)[C@H]([C@@H](C)O)NC(=O)[C@H](CC(N)=O)NC1=O)NC(=O)[C@H](CC(C)(C)C)NC(=O)[C@H](CC(=O)O)NC2=O (stereo partly drawn) [I-2144, Ac-PL3-Asp-Npg-B5-Asn-Thr-Ala-Ala-Phe-Thr-PyrS2-3Thi-BztA-Phe-NH2]"
4,726 nM,"CC(=O)N1CCC[C@]12CC1OC1CCCC1(CCCC=CCCCOC(=O)N3CC[C@@](C(=O)N[C@@H](Cc4ccccc4C(F)(F)F)C(=O)N[C@@H](Cc4csc5ccccc45)C(=O)N[C@@H](CCC(N)=O)C(N)=O)(C3)NC(=O)[C@H](CC(C)C)NC(=O)[C@H](Cc3ccccc3)NC(=O)[C@H](C)NC(=O)[C@H](C)NC(=O)[C@H](Cc3cccc(C(=O)O)c3)NC(=O)[C@H](CC(=O)O)NC1=O)NC(=O)[C@H](CC(C)(C)C)NC(=O)[C@H](CC(=O)O)NC2=O (stereo partly drawn) [I-2597, Ac-PL3-Asp-Npg-B5-Asp-3COOHF-Ala-Ala-Phe-Leu-PyrS2-2F3MeF-BztA-Gln-NH2]"
5,3800 nM,"CC(=O)N1CCC[C@]12CC=CCCCC1(CCCC=CCCCOC(=O)N3CC[C@@](C(=O)N[C@@H](Cc4ccsc4)C(=O)N[C@@H](Cc4csc5ccccc45)C(=O)N[C@@H](CCC(N)=O)C(N)=O)(C3)NC(=O)[C@H](CC(N)=O)NC(=O)[C@H](Cc3ccccc3)NC(=O)[C@H](C)NC(=O)[C@H](C)NC(=O)[C@H](CC(=O)O)NC(=O)[C@H](CC(=O)O)NC1=O)NC(=O)[C@H](CC(C)(C)C)NC(=O)[C@H](Cn1cc(CC(C)(C)C(=O)O)nn1)NC2=O (stereo partly drawn) [I-2329, Ac-PL3-[CH2CMe2CO2H]TriAzDap-Npg-B5-Asp-Asp-Ala-Ala-Phe-Asn-PyrS2-3Thi-BztA-Gln-NH2]"
6,1290 nM,"CCCC[C@@H]1NC(=O)[C@H](Cc2ccccc2)NC(=O)[C@H](C)NC(=O)[C@H](C)NC(=O)[C@H]([C@@H](C)O)NC(=O)[C@H](CC(N)=O)NC(=O)C2(CCCC=CCCCOC(=O)N3CC[C@@](C(=O)N[C@@H](Cc4ccsc4)C(=O)N[C@@H](Cc4csc5ccccc45)C(=O)N[C@@H](CCC(N)=O)C(N)=O)(C3)NC1=O)CCCC=CC[C@]1(CCCN1C(C)=O)C(=O)N[C@@H](CC(=O)O)C(=O)N[C@@H](CC(C)(C)C)C(=O)N2 (stereo partly drawn) [I-1619, Ac-PL3-Asp-Npg-B5-Asn-Thr-Ala-Ala-Phe-nLeu-PyrS2-3Thi-BztA-Gln-NH2]"
